According to US20230097753A1, “ALPHA-HYDROXYLATED FATTY-ACID METABOLITES, MEDICAL USES AND USE AS BIOMARKERS” (UNIVERSITAT DE LES ILLES BALEARS, priority 2020, published 2023):
Where “and” joins values, the source holds several entries; their conditions need not be identical. Equal entries are not always repeated.

How the values were obtained:
[1] = test system: mouse astrocytes; details: 24 h, 400 μM
Text: (§4) Analysis of the composition of fatty acids in different glioma and non-tumor cell lines after treatment with 2OHOA sodium salt. […] The black bar corresponds to the concentration of each fatty acid in the control, and the white bar corresponds to the concentration of the fatty acid after treatment with 2OHOA sodium salt. C17:0 margaric acid is included as an internal control. The columns show the mean±SEM of three independent experiments expressed in nmoles and normalized per mg of protein. Statistical significance is determined with a Student's t-test (**p<0.01, ***p<0.001 with respect to the control).

[2] = Fatty acids in plasma of patients with advanced glioma treated with 2OHOA sodium salt; assay type: in vivo, human; details: for Time of peak plasma levels: first day
Protocol: FIG. 24. Analysis of composition in fatty acids in human patients with advanced glioma. (A) Representative chromatogram of the fatty acid composition of a patient with glioma responsive to treatment with 2OHOA sodium salt (12 g/day, 21 days) and determined in plasma samples obtained at different treatment times (0, 4 and 360 hours, 15 days) by gas chromatography. […] The C17:0 margaric acid in the chromatograms was quantified as internal control.
Plasma samples were obtained at different times (0, 2, 4, 6, 8 hours and after 8, 15, 21 and 28 days after treatment with 2OHOA) and were subsequently given for fatty acid analysis using the gas chromatography technique.

[3] = test system: SF-295 glioma cells; details: human, 24 h, 400 μM
Text: as §4

[4] = defined in preclinical studies; cited from earlier work
[5] = test system: mouse astrocytes; test: Cell viability by violet crystal staining, 72 hours; assay type: cell-based; details: Astrocyte, Astrocytes non-tumor cells
Protocol: (§1) FIG. 15. Effect of 2OHOA sodium salt, C17:1n-9 sodium salt, and OA on cell viability and proliferation of non-tumor cells. Non-tumor cell viability curves (A1-A3) MRC-5 (human fibroblasts); and (B1-B3) mouse astrocytes treated with increasing doses of 2OHOA sodium salt (0-1000 μM) (A1 and B1); OA (0-300 μM) (A2 and B2); and C17:1n-9 sodium salt (0-300 μM) (A3 and B3) for 72 hours. Viability was determined by violet crystal staining.
(§2) In order to evaluate the antiproliferative effect of C17:1n-9, its IC50, which corresponds to the amount of a compound needed to reduce cell viability in vitro by 50%, as well as its effect on the regulation of proteins involved in the mechanism of action of 2OHOA, were determined. […] Upon completion of treatment, IC50 was determined by violet crystal staining technique. […] The IC50 of 2OHOA was 1000 μM for non-tumor cells, MRC-5 and astrocytes.

[6] = test system: MRC-5 (human fibroblasts); test: as above; assay type: cell-based
Protocol: as §1, §2

[7] = test system: SF-295 glioma cells; test: as above; assay type: cell-based, human; details: for IC50: SF-295, 72 hours
Protocol: FIG. 14. Effect of 2OHOA sodium salt, OA and C17:1n-9 sodium salt on cell viability and proliferation of glioma cells. […] Viability was determined by violet crystal staining.
as §2

[8] = test system: MRC-5 (human fibroblasts); details: 24 h, 400 μM
Text: as §4

[9] = Fatty acids in rat plasma after oral 2OHOA sodium salt (gas chromatography); assay type: in vivo; details: for Maximum plasma concentration: 2 hours after oral 2OHOA sodium salt 2 g/Kg; for Maximum plasma concentration / Time of maximum plasma concentration: acute treatment
Protocol: FIG. 20. […] Statistical significance is determined with a Wilcoxon test (*p<0.05 and **p<0.01 with respect to baseline levels at 0 hours; $p<0.05 and $$p<0.01 with respect to 2OHOA fatty acid levels).
FIG. 21. […] Statistical significance is determined by a Wilcoxon test (*p<0.05 and **p<0.01 with respect to baseline levels at 0 hours; $p<0.05 and $$p<0.01 with respect to 2OHOA fatty acid levels).
For the present study, 2 g of 2OHOA/Kg sodium salt was administered to rats 12-14 weeks of age orally for 15 days. Subsequently, plasma samples were extracted at different times (0, 1, 2, 3, 4, 6, 8 and 24 h) from day 1 (acute treatment) and 15 (chronic treatment). Finally, the fatty acid profile in plasma samples was analyzed by gas chromatography.

[10] = test system: BIP, CHOP, cJun phosphorylation, phosphorylation of Akt, cyclin D3; test: Western Blot of proliferation and death markers in glioma and non-tumor cell lines; assay type: cell-based; details: 200 μM C17:1n-9, 200 μM OA or 400 μM 2OHOA, 72 hours
Protocol: FIG. 16. Analysis of the effect of different fatty acids on markers of proliferation and death in different cell lines.
(§3) To study whether the metabolite C17:1n-9 can participate in the action of 2OHOA, the effect of pre-incubation with oxythiamine on cell survival and 2OHOA-regulated proteins was studied. To do this, the cell survival of different glioma and non-tumor cell lines treated with 2OHOA (400 μM, 72 hours) and pre-incubated or not with 2 mM […] (90 minutes) was analyzed by counting the cells with the vital exclusion stain with trypan blue. In addition, Western-blot 2OHOA-modulated proteins were studied. In glioma cells, a significant decrease in cell survival was observed after incubation with 2 mM oxythiamine for 72 hours.

[11] = test system: SF-295; test: Cell survival by trypan blue vital exclusion staining, 2OHOA and oxythiamine; assay type: cell-based, human
Protocol: FIG. 18. Effect of metabolite C17:1n-9 on the action of 2OHOA. […] Cell viability was determined by vital exclusion staining with trypan blue.
as §3

[12] = test system: MRC-5 (human fibroblasts); test: Fatty acid composition by gas chromatography after treatment with 2OHOA; details: MRC-5, 2OHOA 400 μM for 24 hours
Text: as §4

[13] = test system: mouse astrocytes; test: as above; details: 2OHOA 400 μM for 24 hours
Text: as §4

[14] = patients, 12 g/day 2OHOA sodium salt

CCCCCCCC/C=C\CCCCCCC(O)C(=O)O (stereo not shown) [2OHOA, 2-hydroxyoleic acid]
2OHOA accumulated more than its metabolite C17:1n-9 [1]: 38.27%
concentration at 4 h ([2]; human, plasma, oral, patients (responders and non-responders), 12 g/day 2OHOA sodium salt, read-out: Plasma level 4 hours after the first intake): 53.1 ± 6.52 µM
concentration at 8 h ([2]; human, plasma, oral, patients, 12 g/day 2OHOA sodium salt, read-out: Plasma level 8 hours after treatment): 25.4 ± 3.99 µM
concentration at 360 h ([2]; human, plasma, oral, patients, 12 g/day 2OHOA sodium salt, read-out: Plasma level after 15 days (360 hours) of treatment): 185 ± 25.6 µM
concentration at 192 h ([2]; human, plasma, oral, patients, 12 g/day 2OHOA sodium salt, read-out: Plasma level at 8 days of treatment (192 hours)): 25.4 ± 3.99 µM
Plasma level after 15 days (360 hours) of treatment [2, 14]: 141.10±16.35 nmol/ml plasma
Plasma level at 8 days of treatment (192 hours) [2, 14]: 25.39±3.99 nmol/ml plasma
Plasma level at 21 days of treatment [2, 14]: 184.70±25.60 nmol/ml plasma
Time of peak plasma levels [2, 14]: 4 h
Level of the fatty acid in cells after treatment with 2OHOA [3]: 9.21 nmol/mg
Maximum tolerated dose [4]: 2000 mg/kg
IC50 [5]: > 1000 µM
IC50 ([6]; Homo sapiens, MRC5, MRC-5 non-tumor cells): > 1000 µM
IC50 ([7]; Homo sapiens): 399 ± 11.5 µM
IC50 of 2OHOA relative to that of metabolite C17:1n-9 ([7]; SF-295): 1.60 times
IC50 of 2OHOA relative to that of non-hydroxy analogue OA ([7]; SF-295): 1.56 times
2OHOA accumulated more than its metabolite C17:1n-9 [8]: 46%
Maximum plasma concentration [9]: 26.23±5.79 nmol/ml plasma
Time of maximum plasma concentration ([9]; oral 2OHOA sodium salt 2 g/Kg): 2 h
concentration at 8 h ([9]; plasma, oral 2OHOA sodium salt 2 g/Kg, read-out: Plasma level after 8 hours): 7.12 ± 1.56 µM
concentration at 0 h ([9]; plasma, oral 2OHOA sodium salt 2 g/Kg, read-out: Plasma level at 0 hours (initial levels, prior to administration)): 1.22 ± 0.33 µM
concentration at 24 h ([9]; plasma, oral 2OHOA sodium salt 2 g/Kg, read-out: Plasma level at 24 hours (trough values)): 2.8 ± 0.69 µM
Effect on signaling proteins (Western Blot) [10]: increased levels of BIP, CHOP and cJun phosphorylation and decreased phosphorylation of Akt and cyclin D3 levels
Cell death ([11]; SF-295, 2OHOA 400 μM, 72 hours): 23.97±1.25%
Cell death ([11]; SF-295, 2OHOA combined with 2 mM oxythiamine): 10.85±0.58%
Recovery in cell viability ([11]; SF-295, 2OHOA combined with 2 mM oxythiamine vs 2OHOA alone): 17.25%

CCCCCCCC/C=C\CCCCCCC(=O)O [C17:1n-9, 8Z-heptadecenoic acid]
Plasma level 4 hours after the first intake ([2]; patients (responders and non-responders), 12 g/day 2OHOA sodium salt): 122.80±10.61 nmol/ml of plasma
C17:1n-9 plasma levels relative to 2OHOA ([2]; patients at 21 days of treatment): 1.90 times
C17:1n-9 plasma levels relative to 2OHOA ([2]; patients treated for 8 days): 3.66 times
C17:1n-9 plasma levels relative to 2OHOA ([2]; patients treated for 15 days): 2.20 times
Plasma level 8 hours after treatment [2, 14]: 92.89±9.39 nmol/ml of plasma
Plasma level at 21 days of treatment [2, 14]: 366.9±72.47 nmol/ml plasma
Time of peak plasma levels [2, 14]: 4 h
IC50 ([6]; MRC-5 non-tumor cells): 248 ± 7.28 µM
IC50 [7]: 249 ± 6.02 µM
Maximum plasma concentration [9]: 60.47±6.53 nmol/ml plasma
Plasma level after 8 hours ([9]; oral 2OHOA sodium salt 2 g/Kg): 23.31±5.18 nmol/mL plasma
Plasma level at 0 hours (initial levels, prior to administration) ([9]; oral 2OHOA sodium salt 2 g/Kg): 8.45±2.52 nmol/ml plasma
Plasma level at 24 hours (trough values) ([9]; oral 2OHOA sodium salt 2 g/Kg): 14.03±2.20 nmol/ml plasma and 14.03±2.21 nmol/ml plasma
Time of maximum plasma concentration ([9]; oral 2OHOA sodium salt 2 g/Kg): 2 h
Level of the fatty acid in cells after treatment with 2OHOA [12]: 14.00 nmol/mg
Effect on signaling proteins (Western Blot) [10]: did not produce changes in any of these proteins
Level of the fatty acid in cells after treatment with 2OHOA [13]: 7.58 ± 0.70 nmol/mg and 7.58 nmol/mg
